Literature values, collected in the PKSmart pharmacokinetics tables (Seal et al. 2025).

Experiments:
[1] = not given per row; by the article one of three: Lombardo et al. 2013, J Clin Pharmacol 53:178, doi 10.1177/0091270012440282; 'New Drugs at FDA', novel drug approvals for 2021 and 2022 (the article's reference 43); Yap, Li, Chen 2006, J Mol Graph Model 24:383, doi 10.1016; details: human; for clearance / Vd / half-life: in vivo; for fraction unbound: plasma
[2] = Lombardo et al. 2013, J Clin Pharmacol 53:178, doi 10.1177/0091270012440282; details: for Vd / clearance: in vivo, iv; for fraction unbound: plasma

Structure (SMILES) | clearance [1] [mL/min/kg] | other results
CCOCCn1c(N2CCCN(C)CC2)nc2ccccc21 | 12.5 | 
NC(=O)c1cnn([C@H]2O[C@@H](CO)[C@@H](O)[C@@H]2O)n1 | 5 | 
CCN1C[C@@H](CCN2CCOCC2)C(c2ccccc2)(c2ccccc2)C1=O | 5.75 | 
CC(C)(C)NC[C@@H](O)COc1cccc2c1C[C@H](O)[C@@H](O)C2 | 2.94 | 
Cc1cc(C=CC#N)cc(C)c1Nc1ccnc(Nc2ccc(C#N)cc2)n1 |  | Vd [1]: 2.71 L/kg; half-life [1]: 44.5 h; fraction unbound [1]: 0.3
CCNC[C@H](O)c1ccc(O)cc1 | 13.6 | 
C[C@@H]1COc2c(N3CCN(C)CC3)c(F)c(C(=O)O)c3c(=O)ccn1c23 | 3.5 | 
O[C@@H](c1cc(C(F)(F)F)nc2c(C(F)(F)F)cccc12)[C@@H]1CCCCN1 | 0.41 | 
[2H]C([2H])([2H])C([2H])([2H])C(C)n1ncn(-c2ccc(N3CCN(c4ccc(OC[C@H]5CO[C@](Cn6cncn6)(c6ccc(Cl)cc6Cl)O5)cc4)CC3)cc2)c1=O (stereo not given in full) | 5.1 | Vd [1]: 7.4 L/kg; Vd ([2]; rat): 5.07 L/kg; clearance ([2]; rat): 9.16 mL/min/kg; fraction unbound ([2]; rat): 0.9
CN1CCN(c2ccc(Nc3ncc4cc5n(c4n3)C3(CCCCC3)CNC5=O)nc2)CC1 | 41.7 | Vd [1]: 18.8 L/kg; half-life [1]: 14 h
CC(C)(C)NC[C@@H](O)COc1nsnc1N1CCOCC1 | 8.1 | 
C[C@]12CC[C@@H]3c4ccc(O)cc4CC[C@H]3[C@@H]1[C@@H](O)[C@@H](O)[C@@H]2O |  | half-life [1]: 27 h; fraction unbound [1]: 0.52
COc1ccnc(C[S@@+](O)c2nc3cc(OC(F)F)ccc3[n-]2)c1OC | 2.57 | 
C[C@@H](O[C@H]1OCCN(Cc2nc(=O)[nH][nH]2)[C@H]1c1ccc(F)cc1)c1cc(C(F)(F)F)cc(C(F)(F)F)c1 |  | Vd [1]: 0.94 L/kg; Vd ([2]; dog): 1 L/kg; fraction unbound ([2]; dog): 0.0009; Vd ([2]; rat): 3.2 L/kg; fraction unbound ([2]; rat): 0.002
CN1CCN(/C=C2/N=C3CN=C(c4ccccc4Cl)c4cc([N+](=O)[O-])ccc4N3C2=O)CC1 | 5.09 | 
CC(NC(CCc1ccccc1)C(=O)O)C(=O)N1C(C(=O)O)C[C@@H]2CCCC[C@@H]21 (stereo not given in full) | 1.67 | 
CCCCN(CCCC)C[C@H](O)c1cc(Cl)cc2c1-c1ccc(Cl)cc1/C2=C/c1ccc(Cl)cc1 | 3.57 | 
CC1=C(/C=C/C(C)=C/C=C/C(C)=C/C(=O)Nc2ccc(O)cc2)C(C)(C)CCC1 | 23.5 | 
C=CC(=O)Nc1cc(Nc2ncc(C(=O)OC(C)C)c(-c3cn(C)c4ccccc34)n2)c(OC)cc1N(C)CCN(C)C | 38.3 | Vd [1]: 58.5 L/kg; half-life [1]: 18 h; fraction unbound [1]: 0.01
COc1ccc(NC(=O)\C=C(C)/C=C/C=C(C)\C=C\C2=C(C)CCCC2(C)C)cc1 | 98.9 | 
Cc1c(OCC(F)(F)F)ccnc1C[S@@+](O)c1nc2ccccc2[n-]1 | 6.23 | 
CC[C@H](OC(C)=O)C(C[C@@H](C)N(C)C)(c1ccccc1)c1ccccc1 | 4.09 | 
CN(C)CCC(c1ccccc1)c1ccccn1 (stereo not given) | 2.14 | 
C[C@@](Cc1ccc(O)c(O)c1)(NN)C(=O)O | 18 | 
CC(=O)NC(CCS)C(=O)O (stereo not given) | 2.06 | 
Nc1nc(F)nc2c1ncn2[C@@H]1O[C@@H](COP(=O)(O)O)[C@@H](O)[C@@H]1O | 3.7 | 

Structure (SMILES) | clearance [1] [mL/min/kg] | other results
NC(=O)c1cc[n+](CC2=C(C(=O)O)N3C(=O)C(NC(=O)C(c4ccccc4)S(=O)(=O)[O-])[C@@H]3SC2)cc1 (stereo not given in full) | 1.92 | 
CC(C)Oc1ccc(-c2nn([C@@H](C)c3oc4ccc(F)cc4c(=O)c3-c3cccc(F)c3)c3ncnc(N)c23)cc1F | 4.31 | Vd [1]: 5.2 L/kg; half-life [1]: 91 h; fraction unbound [1]: 0.01
CN1CCC[C@@H](n2nc(Cc3ccc(Cl)cc3)c3ccccc3c2=O)CC1 | 8.33 | 
CC(C)NC(=O)COc1cccc(-c2nc(Nc3ccc4[nH]ncc4c3)c3ccccc3n2)c1 | 2.73 | Vd [1]: 3.07 L/kg; half-life [1]: 19 h
CCOC(=O)NC1=C(N2CC2)C(=O)C(NC(=O)OCC)=C(N2CC2)C1=O | 11 | 
CC(=O)Oc1cc(C(F)(F)F)ccc1C(=O)O | 10.7 | 
COc1ccc2c3c1OC1C(=O)CC[C@@H]4[C@H](C2)N(C)CC[C@@]314 (stereo not given in full) | 8.82 | 
CCOC(=O)C(Cc1ccc(F)cc1)NC(=O)C(N)Cc1ccc(N(CCCl)CCCl)cc1 (stereo not given) | 192 | Vd [1]: 0.58 L/kg; half-life [1]: 0.04 h
CO[C@]1(NC(O)=c2sc(=C(C(N)=O)C(=O)O)s2)C(=O)N2C(C(=O)O)=C(CSc3nnnn3C)CS[C@@H]21 | 0.63 | 
O=C(O)C1=C(C[n+]2ccc(CCS(=O)(=O)[O-])cc2)CS[C@@H]2C(NC(=O)C(NC(=O)c3nc[nH]c3C(=O)O)c3ccccc3)C(=O)N12 (stereo not given in full) | 1.7 | Vd [1]: 0.21 L/kg; Vd ([2]; dog): 0.2 L/kg; clearance ([2]; dog): 0.6 mL/min/kg; fraction unbound ([2]; dog): 0.07; Vd ([2]; monkey): 0.3 L/kg; clearance ([2]; monkey): 3 mL/min/kg
NNc1nncc2ccccc12 | 70.5 | Vd [1]: 1.5 L/kg; fraction unbound ([2]; dog): 0.29; Vd ([2]; rat): 2.76 L/kg; clearance ([2]; rat): 139 mL/min/kg
C[C@@H]1C[C@H]2[C@@H]3C[C@H](F)C4=CC(=O)C=C[C@]4(C)[C@@]3(F)[C@H](O)C[C@]2(C)[C@@]1(O)C(=O)SCF | 15.6 | 
O=C(c1ccc(NS(=O)(=O)c2cccc3cccnc23)cc1)N1CCN(CC2CC2)CC1 | 3.47 | Vd [1]: 0.71 L/kg; half-life [1]: 4 h; fraction unbound [1]: 0.02
NC(=O)c1ncn([C@H]2O[C@H](CO)[C@@H](O)[C@@H]2O)c1N | 41.7 | 
CC(CO)(CO)NCc1cc2c3ccccc3ccc2c2ccccc12 | 8.44 | 
CCCCCCCN(CC)CCC[C@@H](O)c1ccc(NS(C)(=O)=O)cc1 | 29 | 
NC(=O)CN1CCCC1=O | 1.3 | 
[H]/N=C(/N=C(N)N)N(C)C | 7.4 | Vd [1]: 0.64 L/kg; Vd ([2]; rat): 0.54 L/kg; clearance ([2]; rat): 16.8 mL/min/kg
O[C@@](CCN1CCCC1)(c1ccccc1)C1CCCCC1 | 0.97 | 
CNS(=O)(=O)CCC1CCC2[N]CC(C3CCN(C)CC3)C2C1 (stereo not given) | 6.35 | 
CCCC(NC(C)C(=O)N1C(C(=O)O)C[C@@H]2CCCC[C@H]21)C(=O)OCC (stereo not given in full) | 6.19 | 
C[C@@H]1CCC[C@@H](C)N1CCC[C@@](O)(c1ccccc1)c1ccccn1 | 2.34 | 
CN1CCC[C@@H]1c1cccnc1 | 18.5 | 
C[C@]1(Cn2ccnn2)C(C(=O)O)N2C(=O)C[C@@H]2S1(=O)=O (stereo not given in full) | 2.91 | 
CCCCCc1cc(O)c2c(c1)OC(C)(C)[C@H]1CCC(C)=C[C@H]21 | 3.33 | 
